Test results from article PMC9532703, “A novel small molecule RK-019 inhibits FGFR2-amplification gastric cancer cell proliferation and induces apoptosis in vitro and in vivo” (Frontiers in Pharmacology, 2022).

Key:
Assay in all cases: Kinase selectivity panel
Format in all cases: biochemical
ACK1(h) = target: T1, ACK1(h) (Homo sapiens, UniProt Q07912); conditions: read-out: Inhibition(%) @ 1 µM RK-019
T1 construct: purchased Eurofins Discovery Services (KinaseProfiler)
Outline: (§1)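 Recombinant human kinase incubated with 1 µM compound; ATP-site competition binding quantified in vitro as inhibition ratio.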

BIKe(h) = target: T2, BIKe(h) (Homo sapiens, UniProt Q9NSY1); conditions: read-out: Inhibition(%) @ 1 µM RK-019
T2 construct: purchased Eurofins Discovery Services (KinaseProfiler)
Outline: as §1

CDK16/cyclinY(h) = target: T3, CDK16/cyclinY(h) (Homo sapiens, UniProt Q00536); conditions: read-out: Inhibition(%) @ 1 µM RK-019
T3 construct: purchased Eurofins Discovery Services (KinaseProfiler)
Outline: as §1

CDK2/cyclinA(h) = target: T4, CDK2/cyclinA(h) (Homo sapiens, UniProt P24941); conditions: read-out: Inhibition(%) @ 1 µM RK-019
T4 construct: purchased Eurofins Discovery Services (KinaseProfiler)
Outline: as §1

CDK3/cyclinE(h) = target: T5, CDK3/cyclinE(h) (Homo sapiens, UniProt Q00526); conditions: read-out: Inhibition(%) @ 1 µM RK-019
T5 construct: purchased Eurofins Discovery Services (KinaseProfiler)
Outline: as §1

CK1ε(h) = target: T6, CK1ε(h) (Homo sapiens, UniProt P49674); conditions: read-out: Inhibition(%) @ 1 µM RK-019
T6 construct: purchased Eurofins Discovery Services (KinaseProfiler)
Outline: as §1

Cdc7/cyclinB1(h) = target: T7, Cdc7/cyclinB1(h) (Homo sapiens, UniProt O00311); conditions: read-out: Inhibition(%) @ 1 µM RK-019
T7 construct: purchased Eurofins Discovery Services (KinaseProfiler)
Outline: as §1

EphA4(h) = target: T8, EphA4(h) (Homo sapiens, UniProt P54764); conditions: read-out: Inhibition(%) @ 1 µM RK-019
T8 construct: purchased Eurofins Discovery Services (KinaseProfiler)
Outline: as §1

EphB2(h) = target: T9, EphB2(h) (Homo sapiens, UniProt P29323); conditions: read-out: Inhibition(%) @ 1 µM RK-019
T9 construct: purchased Eurofins Discovery Services (KinaseProfiler)
Outline: as §1

Flt1(h) = target: T10, Flt1(h) (Homo sapiens, UniProt P17948); conditions: read-out: Inhibition(%) @ 1 µM RK-019
T10 construct: purchased Eurofins Discovery Services (KinaseProfiler)
Outline: as §1

ICK(h) = target: T11, ICK(h) (Homo sapiens, UniProt Q9UPZ9); conditions: read-out: Inhibition(%) @ 1 µM RK-019
T11 construct: purchased Eurofins Discovery Services (KinaseProfiler)
Outline: as §1

Itk(h) = target: T12, Itk(h) (Homo sapiens, UniProt Q08881); conditions: read-out: Inhibition(%) @ 1 µM RK-019
T12 construct: purchased Eurofins Discovery Services (KinaseProfiler)
Outline: as §1

Lyn(m) = target: T13, Lyn(m) (Mus musculus, UniProt P25911); conditions: read-out: Inhibition(%) @ 1 µM RK-019
T13 construct: purchased Eurofins Discovery Services (KinaseProfiler)

MEKK3(h) = target: T14, MEKK3(h) (Homo sapiens, UniProt Q99759); conditions: read-out: Inhibition(%) @ 1 µM RK-019
T14 construct: purchased Eurofins Discovery Services (KinaseProfiler)
Outline: as §1

Met(Y1248C)(h) = target: T15, Met(Y1248C)(h) (Homo sapiens, UniProt P08581, Y1230C); conditions: read-out: Inhibition(%) @ 1 µM RK-019
T15 construct: purchased Eurofins Discovery Services (KinaseProfiler)
Outline: as §1

Mnk2(h) = target: T16, Mnk2(h) (Homo sapiens, UniProt Q9HBH9); conditions: read-out: Inhibition(%) @ 1 µM RK-019
T16 construct: purchased Eurofins Discovery Services (KinaseProfiler)
Outline: as §1

NEK2(h) = target: T17, NEK2(h) (Homo sapiens, UniProt P51955); conditions: read-out: Inhibition(%) @ 1 µM RK-019
T17 construct: purchased Eurofins Discovery Services (KinaseProfiler)
Outline: as §1

PAK1(h) = target: T18, PAK1(h) (Homo sapiens, UniProt Q13153); conditions: read-out: Inhibition(%) @ 1 µM RK-019
T18 construct: purchased Eurofins Discovery Services (KinaseProfiler)
Outline: as §1

[1] = target: T19, PI3 Kinase (p110a/p65a)(m) (Mus musculus, UniProt P42337); conditions: read-out: Inhibition(%) @ 1 µM RK-019
T19 construct: purchased Eurofins Discovery Services (KinaseProfiler)

PKCα(h) = target: T20, PKCα(h) (Homo sapiens, UniProt P17252); conditions: read-out: Inhibition(%) @ 1 µM RK-019
T20 construct: purchased Eurofins Discovery Services (KinaseProfiler)
Outline: as §1

PKCθ(h) = target: T21, PKCθ(h) (Homo sapiens, UniProt Q04759); conditions: read-out: Inhibition(%) @ 1 µM RK-019
T21 construct: purchased Eurofins Discovery Services (KinaseProfiler)
Outline: as §1

PRKG2(h) = target: T22, PRKG2(h) (Homo sapiens, UniProt Q13237); conditions: read-out: Inhibition(%) @ 1 µM RK-019
T22 construct: purchased Eurofins Discovery Services (KinaseProfiler)
Outline: as §1

Pim-1(h) = target: T23, Pim-1(h) (Homo sapiens, UniProt P11309); conditions: read-out: Inhibition(%) @ 1 µM RK-019
T23 construct: purchased Eurofins Discovery Services (KinaseProfiler)
Outline: as §1

RIPK2(h) = target: T24, RIPK2(h) (Homo sapiens, UniProt O43353); conditions: read-out: Inhibition(%) @ 1 µM RK-019
T24 construct: purchased Eurofins Discovery Services (KinaseProfiler)
Outline: as §1

ROCK-II(h) = target: T25, ROCK-II(h) (Homo sapiens, UniProt O75116); conditions: read-out: Inhibition(%) @ 1 µM RK-019
T25 construct: purchased Eurofins Discovery Services (KinaseProfiler)
Outline: as §1

Ret(h) = target: T26, Ret(h) (Homo sapiens, UniProt P07949)
T26 construct: purchased Eurofins Discovery Services (KinaseProfiler)
Outline: as §1

Ron(h) = target: T27, Ron(h) (Homo sapiens, UniProt Q04912); conditions: read-out: Inhibition(%) @ 1 µM RK-019
T27 construct: purchased Eurofins Discovery Services (KinaseProfiler)
Outline: as §1

Ros(h) = target: T28, Ros(h) (Homo sapiens, UniProt P08922); conditions: read-out: Inhibition(%) @ 1 µM RK-019
T28 construct: purchased Eurofins Discovery Services (KinaseProfiler)
Outline: as §1

Rse(h) = target: T29, Rse(h) (Homo sapiens, UniProt Q06418); conditions: read-out: Inhibition(%) @ 1 µM RK-019
T29 construct: purchased Eurofins Discovery Services (KinaseProfiler)
Outline: as §1

SAPK2a(h) = target: T30, SAPK2a(h) (Homo sapiens, UniProt Q16539); conditions: read-out: Inhibition(%) @ 1 µM RK-019
T30 construct: purchased Eurofins Discovery Services (KinaseProfiler)
Outline: as §1

SIK(h) = target: T31, SIK(h) (Homo sapiens, UniProt P57059); conditions: read-out: Inhibition(%) @ 1 µM RK-019
T31 construct: purchased Eurofins Discovery Services (KinaseProfiler)
Outline: as §1

TGFBR1(h) = target: T32, TGFBR1(h) (Homo sapiens, UniProt P36897); conditions: read-out: Inhibition(%) @ 1 µM RK-019
T32 construct: purchased Eurofins Discovery Services (KinaseProfiler)
Outline: as §1

TSSK3(h) = target: T33, TSSK3(h) (Homo sapiens, UniProt Q96PN8); conditions: read-out: Inhibition(%) @ 1 µM RK-019
T33 construct: purchased Eurofins Discovery Services (KinaseProfiler)
Outline: as §1

Tie2(R849W)(h) = target: T34, Tie2(R849W)(h) (Homo sapiens, UniProt Q02763, R849W); conditions: read-out: Inhibition(%) @ 1 µM RK-019
T34 construct: purchased Eurofins Discovery Services (KinaseProfiler)
Outline: as §1

Txk(h) = target: T35, Txk(h) (Homo sapiens, UniProt P42681); conditions: read-out: Inhibition(%) @ 1 µM RK-019
T35 construct: purchased Eurofins Discovery Services (KinaseProfiler)
Outline: as §1

ULK2(h) = target: T36, ULK2(h) (Homo sapiens, UniProt Q8IYT8); conditions: read-out: Inhibition(%) @ 1 µM RK-019
T36 construct: purchased Eurofins Discovery Services (KinaseProfiler)
Outline: as §1

Wee1(h) = target: T37, Wee1(h) (Homo sapiens, UniProt P30291); conditions: read-out: Inhibition(%) @ 1 µM RK-019
T37 construct: purchased Eurofins Discovery Services (KinaseProfiler)
Outline: as §1

T26 sequence (P07949 29-1114): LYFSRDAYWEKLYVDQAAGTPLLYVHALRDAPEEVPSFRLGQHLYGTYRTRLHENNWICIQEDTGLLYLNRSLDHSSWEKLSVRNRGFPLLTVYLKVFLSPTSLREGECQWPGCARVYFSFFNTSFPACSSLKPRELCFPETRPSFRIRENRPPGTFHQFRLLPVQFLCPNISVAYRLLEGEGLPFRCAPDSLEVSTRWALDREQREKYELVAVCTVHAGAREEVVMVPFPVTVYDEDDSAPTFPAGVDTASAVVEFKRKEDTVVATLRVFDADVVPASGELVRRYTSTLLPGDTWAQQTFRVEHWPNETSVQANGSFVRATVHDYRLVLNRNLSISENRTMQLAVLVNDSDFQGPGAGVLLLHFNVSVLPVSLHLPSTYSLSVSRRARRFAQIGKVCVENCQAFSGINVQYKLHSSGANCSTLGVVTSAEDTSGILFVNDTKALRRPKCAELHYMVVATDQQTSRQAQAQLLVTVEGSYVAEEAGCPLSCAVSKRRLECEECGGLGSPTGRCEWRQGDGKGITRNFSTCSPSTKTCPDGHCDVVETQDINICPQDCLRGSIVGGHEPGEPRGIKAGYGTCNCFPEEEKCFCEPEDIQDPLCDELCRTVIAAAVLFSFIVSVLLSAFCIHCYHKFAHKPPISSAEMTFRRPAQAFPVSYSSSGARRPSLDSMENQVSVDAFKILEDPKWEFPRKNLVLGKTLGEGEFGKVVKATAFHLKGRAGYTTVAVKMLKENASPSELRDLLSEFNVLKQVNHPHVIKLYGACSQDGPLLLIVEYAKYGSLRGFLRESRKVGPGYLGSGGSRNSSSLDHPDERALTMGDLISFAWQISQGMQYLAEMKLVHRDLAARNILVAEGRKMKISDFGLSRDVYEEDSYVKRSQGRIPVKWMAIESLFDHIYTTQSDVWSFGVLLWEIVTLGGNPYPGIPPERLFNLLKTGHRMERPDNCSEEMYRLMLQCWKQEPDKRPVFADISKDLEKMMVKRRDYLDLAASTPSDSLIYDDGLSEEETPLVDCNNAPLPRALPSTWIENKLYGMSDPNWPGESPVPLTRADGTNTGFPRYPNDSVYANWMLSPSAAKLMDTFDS
T34 sequence (Q02763 23-1124 R849W): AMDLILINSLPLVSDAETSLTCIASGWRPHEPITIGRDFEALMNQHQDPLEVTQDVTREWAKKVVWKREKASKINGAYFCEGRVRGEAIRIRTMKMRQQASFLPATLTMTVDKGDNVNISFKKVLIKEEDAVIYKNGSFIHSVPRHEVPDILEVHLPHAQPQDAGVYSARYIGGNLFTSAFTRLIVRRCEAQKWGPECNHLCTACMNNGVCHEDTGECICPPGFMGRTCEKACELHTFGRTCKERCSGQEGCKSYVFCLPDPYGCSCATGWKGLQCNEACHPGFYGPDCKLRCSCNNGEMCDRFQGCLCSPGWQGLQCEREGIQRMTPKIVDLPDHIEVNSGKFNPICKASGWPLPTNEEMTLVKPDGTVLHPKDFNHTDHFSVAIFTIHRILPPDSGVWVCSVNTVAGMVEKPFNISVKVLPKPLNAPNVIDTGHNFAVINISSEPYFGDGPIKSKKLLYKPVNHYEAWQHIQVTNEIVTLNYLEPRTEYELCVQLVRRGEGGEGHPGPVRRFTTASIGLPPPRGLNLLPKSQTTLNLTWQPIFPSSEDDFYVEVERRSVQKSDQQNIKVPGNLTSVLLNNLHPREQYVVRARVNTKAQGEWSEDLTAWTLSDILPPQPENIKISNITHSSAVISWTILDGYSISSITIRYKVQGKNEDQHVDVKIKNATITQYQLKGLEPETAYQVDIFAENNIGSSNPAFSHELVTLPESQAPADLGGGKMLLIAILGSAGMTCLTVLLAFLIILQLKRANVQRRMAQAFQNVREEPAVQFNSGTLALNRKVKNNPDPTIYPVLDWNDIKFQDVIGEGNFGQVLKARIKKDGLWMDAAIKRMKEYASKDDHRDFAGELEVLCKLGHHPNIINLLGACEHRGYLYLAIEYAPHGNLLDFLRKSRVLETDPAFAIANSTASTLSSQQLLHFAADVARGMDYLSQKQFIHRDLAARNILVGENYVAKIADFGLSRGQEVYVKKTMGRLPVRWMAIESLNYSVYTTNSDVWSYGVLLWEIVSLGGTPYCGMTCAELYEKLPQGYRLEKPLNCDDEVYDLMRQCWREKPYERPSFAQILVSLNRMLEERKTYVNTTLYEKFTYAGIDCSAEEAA
T8 sequence (P54764 20-986): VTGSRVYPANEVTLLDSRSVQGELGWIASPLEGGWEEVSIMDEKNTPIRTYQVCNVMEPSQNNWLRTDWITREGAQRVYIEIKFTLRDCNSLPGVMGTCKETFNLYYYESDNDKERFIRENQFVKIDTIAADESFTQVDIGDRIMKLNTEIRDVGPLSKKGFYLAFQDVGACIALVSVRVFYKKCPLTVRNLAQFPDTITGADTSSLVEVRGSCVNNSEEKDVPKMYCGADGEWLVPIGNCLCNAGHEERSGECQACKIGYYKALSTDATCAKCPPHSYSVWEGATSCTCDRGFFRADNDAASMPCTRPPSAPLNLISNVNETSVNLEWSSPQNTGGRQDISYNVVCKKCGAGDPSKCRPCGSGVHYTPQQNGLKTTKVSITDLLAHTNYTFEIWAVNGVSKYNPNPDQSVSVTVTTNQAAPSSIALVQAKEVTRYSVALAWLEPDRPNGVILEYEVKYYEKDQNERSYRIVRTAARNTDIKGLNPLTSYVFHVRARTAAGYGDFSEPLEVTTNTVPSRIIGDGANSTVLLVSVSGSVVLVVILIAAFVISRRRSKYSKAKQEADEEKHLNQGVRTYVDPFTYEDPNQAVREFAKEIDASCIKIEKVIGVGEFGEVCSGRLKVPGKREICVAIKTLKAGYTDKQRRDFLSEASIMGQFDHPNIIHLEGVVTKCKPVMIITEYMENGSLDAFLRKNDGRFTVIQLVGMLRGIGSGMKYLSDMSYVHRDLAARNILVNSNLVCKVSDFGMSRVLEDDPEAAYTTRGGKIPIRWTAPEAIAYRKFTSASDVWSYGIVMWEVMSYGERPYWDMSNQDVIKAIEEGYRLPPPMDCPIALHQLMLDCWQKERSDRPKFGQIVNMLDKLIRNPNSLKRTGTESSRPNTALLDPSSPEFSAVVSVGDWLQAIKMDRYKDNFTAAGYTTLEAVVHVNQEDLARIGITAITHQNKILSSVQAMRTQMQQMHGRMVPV
T7 sequence (O00311 whole entry): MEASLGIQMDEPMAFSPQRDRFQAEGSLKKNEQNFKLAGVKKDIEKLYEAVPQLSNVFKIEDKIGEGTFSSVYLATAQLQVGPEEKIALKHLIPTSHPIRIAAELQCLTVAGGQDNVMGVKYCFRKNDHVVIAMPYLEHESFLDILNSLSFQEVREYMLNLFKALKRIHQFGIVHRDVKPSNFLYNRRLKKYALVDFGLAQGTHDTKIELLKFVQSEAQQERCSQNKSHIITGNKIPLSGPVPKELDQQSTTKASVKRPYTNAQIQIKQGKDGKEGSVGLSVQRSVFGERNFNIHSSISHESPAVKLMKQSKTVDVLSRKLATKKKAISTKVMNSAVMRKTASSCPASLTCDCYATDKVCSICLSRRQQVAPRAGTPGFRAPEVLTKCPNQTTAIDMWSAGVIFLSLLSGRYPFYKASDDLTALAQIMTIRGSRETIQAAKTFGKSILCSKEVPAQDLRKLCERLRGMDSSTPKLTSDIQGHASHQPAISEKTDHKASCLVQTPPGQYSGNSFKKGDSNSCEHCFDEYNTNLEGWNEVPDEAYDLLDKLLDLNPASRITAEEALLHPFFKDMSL
T1 sequence (Q07912 whole entry): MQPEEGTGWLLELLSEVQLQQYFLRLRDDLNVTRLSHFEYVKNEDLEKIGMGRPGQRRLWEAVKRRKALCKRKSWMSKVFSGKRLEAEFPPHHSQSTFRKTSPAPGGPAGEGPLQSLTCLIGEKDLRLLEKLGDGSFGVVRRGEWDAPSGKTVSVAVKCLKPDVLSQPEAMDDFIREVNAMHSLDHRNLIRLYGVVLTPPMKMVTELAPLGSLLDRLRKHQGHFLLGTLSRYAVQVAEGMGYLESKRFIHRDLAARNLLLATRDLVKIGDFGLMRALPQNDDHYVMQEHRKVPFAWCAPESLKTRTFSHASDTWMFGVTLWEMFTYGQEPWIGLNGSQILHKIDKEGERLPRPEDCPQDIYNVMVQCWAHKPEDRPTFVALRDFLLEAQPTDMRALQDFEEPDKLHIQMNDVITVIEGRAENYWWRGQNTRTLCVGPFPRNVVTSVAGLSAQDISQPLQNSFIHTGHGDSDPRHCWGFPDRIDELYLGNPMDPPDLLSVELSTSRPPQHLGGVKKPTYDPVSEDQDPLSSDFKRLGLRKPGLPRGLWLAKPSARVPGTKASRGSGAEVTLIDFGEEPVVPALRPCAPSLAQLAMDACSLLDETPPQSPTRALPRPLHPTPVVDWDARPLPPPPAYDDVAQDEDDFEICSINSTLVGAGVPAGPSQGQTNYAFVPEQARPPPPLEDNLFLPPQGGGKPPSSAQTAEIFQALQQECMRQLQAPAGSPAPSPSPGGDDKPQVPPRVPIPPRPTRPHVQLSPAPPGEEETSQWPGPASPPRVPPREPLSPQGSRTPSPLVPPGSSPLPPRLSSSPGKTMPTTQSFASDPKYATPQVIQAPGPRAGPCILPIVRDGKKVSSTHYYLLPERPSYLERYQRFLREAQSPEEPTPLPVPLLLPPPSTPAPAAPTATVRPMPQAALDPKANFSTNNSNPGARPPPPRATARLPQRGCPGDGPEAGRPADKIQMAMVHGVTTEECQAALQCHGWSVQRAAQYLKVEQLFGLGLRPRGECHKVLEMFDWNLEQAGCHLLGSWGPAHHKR
T33 sequence (Q96PN8 whole entry): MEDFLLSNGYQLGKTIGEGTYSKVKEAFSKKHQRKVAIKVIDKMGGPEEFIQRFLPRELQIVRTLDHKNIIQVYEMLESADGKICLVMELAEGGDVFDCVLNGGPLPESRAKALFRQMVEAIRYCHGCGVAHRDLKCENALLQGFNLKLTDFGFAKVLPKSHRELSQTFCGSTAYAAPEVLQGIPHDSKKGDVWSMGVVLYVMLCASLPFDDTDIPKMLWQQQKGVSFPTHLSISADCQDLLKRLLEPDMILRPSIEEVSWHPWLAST

Work on `COc1cc(OC)cc(N(CCN[C@H](C)CO)c2ccc3ncc(-c4cnn(C)c4)c(=O)n3c2)c1` [RK-019, (R)-7-((3,5-dimethoxyphenyl) (2-((1-hydroxypropan-2-yl)amino)ethyl)amino)-3-(1-methyl-1H-pyrazol-4-yl)-4H-pyrido [1,2-a]pyrimidin-4-one] yielded an activity at 1 µM (ACK1(h)) of 104%, an activity at 1 µM (BIKe(h)) of 93% and an activity at 1 µM (CDK16/cyclinY(h)) of 108%. It also gave an activity at 1 µM (CDK2/cyclinA(h)) of 115%, an activity at 1 µM (CDK3/cyclinE(h)) of 90% and an activity at 1 µM (CK1ε(h)) of 99%. For the same compound, the activity at 1 µM (Cdc7/cyclinB1(h)) was 87%, the activity at 1 µM (EphA4(h)) was 101% and the activity at 1 µM (EphB2(h)) was 96%. It also gave an activity at 1 µM (Flt1(h)) of 29%, an activity at 1 µM (ICK(h)) of 119% and an activity at 1 µM (Itk(h)) of 104%. The activity at 1 µM (Lyn(m)) was 23%, the activity at 1 µM (MEKK3(h)) was 103% and the activity at 1 µM (Met(Y1248C)(h)) was 85%. It also gave an activity at 1 µM (Mnk2(h)) of 108%, an activity at 1 µM (NEK2(h)) of 80% and an activity at 1 µM (PAK1(h)) of 102%. The activity at 1 µM [1] was 100%, the activity at 1 µM (PKCα(h)) was 97% and the activity at 1 µM (PKCθ(h)) was 119%. It also gave an activity at 1 µM (PRKG2(h)) of 100%, an activity at 1 µM (Pim-1(h)) of 111% and an activity at 1 µM (RIPK2(h)) of 46%. It also gave an activity at 1 µM (ROCK-II(h)) of 105%, an inhibition at 1 µM (Ret(h); RET, 1 µM, read-out: inhibition (hit in panel)) greater than 90% and an activity at 1 µM (Ret(h); Ret(h), read-out: Inhibition(%) @ 1 µM RK-019) of 5%. For the same compound, the activity at 1 µM (Ron(h)) was 124%, the activity at 1 µM (Ros(h)) was 101% and the activity at 1 µM (Rse(h)) was 104%. For the same compound, the activity at 1 µM (SAPK2a(h)) was 100%, the activity at 1 µM (SIK(h)) was 89% and the activity at 1 µM (TGFBR1(h)) was 83%. It also gave an activity at 1 µM (TSSK3(h)) of 102%, an activity at 1 µM (Tie2(R849W)(h)) of 82% and an activity at 1 µM (Txk(h)) of 106%. For the same compound, the activity at 1 µM (ULK2(h)) was 107% and the activity at 1 µM (Wee1(h)) was 92%.
